Article PMC12457078, “Inhibition of soluble epoxide hydrolase in endotoxin induced pig lung injury” (Frontiers in Pharmacology, 2025)
Like-named read-outs stand apart in the source and are kept apart here.

How the values were obtained:
Recombinant porcine sEH = biological target: T1, Recombinant porcine sEH (Sus scrofa, UniProt Q6Q2C2); assay: fluorescent activity assay (MNPC substrate), sEH inhibition potency; type: biochemical, pig
T1 construct: made in house
T1 sequence (Q6Q2C2 1-555): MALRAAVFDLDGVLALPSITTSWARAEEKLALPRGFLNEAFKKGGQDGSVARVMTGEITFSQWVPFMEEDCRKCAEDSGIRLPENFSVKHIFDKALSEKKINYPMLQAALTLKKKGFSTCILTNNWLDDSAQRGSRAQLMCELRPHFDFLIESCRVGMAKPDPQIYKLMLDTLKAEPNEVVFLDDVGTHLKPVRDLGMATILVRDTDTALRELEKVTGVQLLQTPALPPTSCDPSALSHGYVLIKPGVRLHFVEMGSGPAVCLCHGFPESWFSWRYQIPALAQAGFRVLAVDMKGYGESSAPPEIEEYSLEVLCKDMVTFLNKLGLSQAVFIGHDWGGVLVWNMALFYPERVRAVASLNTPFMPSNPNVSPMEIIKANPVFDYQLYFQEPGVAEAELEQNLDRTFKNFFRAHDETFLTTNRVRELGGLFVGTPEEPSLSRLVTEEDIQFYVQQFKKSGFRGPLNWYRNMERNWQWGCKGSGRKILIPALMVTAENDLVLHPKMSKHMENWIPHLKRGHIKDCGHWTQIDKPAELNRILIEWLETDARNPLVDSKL

[1] = liver microsomal assay (metabolic stability); type: in vitro ADME, pig; conditions: pig liver microsomes, NADPH generating system, 35 min
Procedure: To further characterize the inhibitors with regard to suitability for administration in pigs, a microsomal assay was used to determine metabolic stability ([Ackley et al., 2004]) for a subset of eight inhibitors chosen for their potency and availability. Microsomal preparations from pig liver were purchased from XenoTech (Kansas City, KS, US). Microsomes, buffer and NADPH generating system were combined, and then the inhibitor was added. The reaction was stopped after 35 min with ice cold acetonitrile containing internal standard (12-[[(cyclohexylamino)carbonyl]amino]-dodecanoic acid). The amount left of parent inhibitor was determined with LC-MS/MS.

[2] = 5 min preincubation 37 °C, MNPC 5 µM, read-out: Pig sEH IC50

| Structure (SMILES) | IC50 (Recombinant porcine sEH; [2]) [µM] | Liver microsomal stability: Amount remaining after 35 min (% of initial) [1] | IC50 (Recombinant porcine sEH) [µM] |
| --- | --- | --- | --- |
| CCCC(=O)N1CCC(NC(=O)Nc2ccc(C(F)(F)F)cc2)CC1 [Compound 2413] | 0.06 |  |  |
| O=C(O)CCCCCCCCCCCNC(=O)NC12CC3CC(CC(C3)C1)C2 [Compound 700] |  | 1 ± 0.1 % of initial |  |
| O=C(Nc1ccc(OC(F)(F)F)cc1)N[C@H]1CC[C@H](Oc2ccc(C(=O)O)cc2)CC1 [Compound 1728] | 0.034 | 78 ± 3 % of initial |  |
| O=C(Nc1ccc(C(F)(F)F)cc1)NC1CCN(C(=O)CC(F)(F)F)CC1 [Compound 2714] | 0.044 |  |  |
| CCC(C)C(=O)N1CCC(NC(=O)Nc2cc(C(F)(F)F)cc(C(F)(F)F)c2)CC1 (centres unmarked) [Compound 2421] | 0.107 |  |  |
| CCC(C)C(=O)N1CCC(NC(=O)Nc2ccc(OC(F)(F)F)cc2)CC1 (centres unmarked) [Compound 2385] |  | 55 ± 3 % of initial | 0.019 |
| COC(=O)c1ccc(NC(=O)NC23CC4CC(CC(C4)C2)C3)cc1O [Compound 1671] | 0.005 |  |  |
| CC(C)C(=O)N1CCC(NC(=O)Nc2ccc(OC(F)(F)F)cc2)CC1 [Compound 2422] | 0.038 |  |  |
| O=C(Nc1cccc2ccccc12)NC1CCCCC1 [Compound 59] | 0.105 |  |  |
| CNc1nc(C)nc(N[C@H]2CCC[C@@H](C(=O)NCc3ccc(C#N)cc3C(F)(F)F)C2)n1 [Compound 2946] | 0.048 | 66 ± 1 % of initial |  |
| CC(=O)N1CCC(NC(=O)Nc2ccc(OC(F)(F)F)cc2)CC1 [Compound 1555] |  |  | 0.197 |
| O=C(O)CCCCCCCCCCCNC(=O)Nc1ccc(OC(F)(F)F)cc1 [Compound 1663] | 0.04 |  |  |
| CC(C)C(=O)N1CCC(NC(=O)Nc2ccc(C(F)(F)F)cc2)CC1 [Compound 2389] | 0.07 |  |  |
| O=C(Nc1ccc(OC(F)(F)F)cc1)N[C@H]1CC[C@@H](Oc2ccc(C(=O)O)cc2)CC1 [Compound 1686] | 0.019 |  |  |
